The record followed here is ChEMBL document CHEMBL3822383, “Coumarin sulfonamides derivatives as potent and selective COX-2 inhibitors with efficacy in suppressing cancer proliferation and metastasis” (Bioorg Med Chem Lett, 2016).

Where only a bound is given, the exact number is not on record here.

One assay relates to A549. The assay can be described thus: cells. The note with it: Homo sapiens, A549, 24 h.
In assay [1] the target is Prostaglandin G/H synthase 1 (Homo sapiens, UniProt P23219). The assay can be described thus: Inhibition of human COX1 using arachidonic acid assessed as production of PGF2alpha after 5 mins by ELISA.
Assay [2] is described as follows: cells. The settings on record: Mus musculus, B16-F10, 24 h.
Description: Antiproliferative activity against mouse B16F10 cells after 24 hrs by MTT assay
For another assay, the system named is HeLa. The assay can be described thus: cells. The note with it: Homo sapiens, 24 h.
Assay [3] can be described thus: cells. The settings on record: Homo sapiens, L02, 24 h.
Description: Antiproliferative activity against human LO2 cells after 24 hrs by MTT assay
The next assay concerns HepG2. As to the kind of experiment: cells. The note with it: Homo sapiens, HepG2, 24 h.
Assay [4] in a line: cells. The settings on record: Homo sapiens, HEK-293T, 24 h.
Description: Antiproliferative activity against human 293T cells after 24 hrs by MTT assay

Sequence of Prostaglandin G/H synthase 1 (P23219 whole entry): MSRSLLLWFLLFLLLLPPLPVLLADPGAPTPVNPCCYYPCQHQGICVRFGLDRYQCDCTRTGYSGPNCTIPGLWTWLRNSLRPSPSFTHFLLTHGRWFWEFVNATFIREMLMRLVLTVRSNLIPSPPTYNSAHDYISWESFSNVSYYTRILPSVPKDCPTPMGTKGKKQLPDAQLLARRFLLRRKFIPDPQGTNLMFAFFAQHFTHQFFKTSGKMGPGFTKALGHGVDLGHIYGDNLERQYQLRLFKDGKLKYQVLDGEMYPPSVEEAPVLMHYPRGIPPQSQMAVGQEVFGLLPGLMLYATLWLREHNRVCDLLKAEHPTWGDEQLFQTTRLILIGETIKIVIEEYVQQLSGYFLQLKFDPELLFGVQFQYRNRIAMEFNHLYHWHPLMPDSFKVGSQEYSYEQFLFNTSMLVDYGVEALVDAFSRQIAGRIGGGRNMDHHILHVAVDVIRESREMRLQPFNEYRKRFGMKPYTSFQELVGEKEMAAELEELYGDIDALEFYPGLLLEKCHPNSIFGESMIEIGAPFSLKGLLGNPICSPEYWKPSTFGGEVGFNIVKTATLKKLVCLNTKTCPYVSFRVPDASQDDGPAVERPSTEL
Description for A549: Antiproliferative activity against human A549 cells after 24 hrs by MTT assay
Description for HeLa: Antiproliferative activity against human HeLa cells after 24 hrs by MTT assay
Description for HepG2: Antiproliferative activity against human HepG2 cells after 24 hrs by MTT assay

Regarding `COc1ccc(-c2cc(C(=O)N/N=C/c3c(Cl)c4ccccc4oc3=O)nn2-c2ccc(S(N)(=O)=O)cc2)cc1`, the IC50 is 31.5 µM in the assay with A549; 84.3 µM in assay [1]; 7.31 µM in the assay “cells [2]”; 12 µM with HeLa; greater than 300 µM in “cells [3]”; 14.7 µM in the assay on HepG2. Besides, in the assay “cells [4]”, the IC50 is greater than 300 µM.
Turning to `NS(=O)(=O)c1ccc(-n2nc(C(=O)N/N=C/c3c(Cl)c4ccccc4oc3=O)cc2-c2ccc(O)cc2)cc1`, the IC50 with A549 is 26.4 µM; in assay [1], greater than 100 µM; in the assay “cells [2]”, 21.3 µM; in the assay with HeLa, 12.4 µM; in the assay “cells [3]” it was 163 µM; in the assay with HepG2, 18.2 µM. Moreover, in “cells [4]”, the IC50 worked out at 139 µM.
Regarding `NS(=O)(=O)c1ccc(-n2nc(C(=O)N/N=C/c3c(Cl)c4ccccc4oc3=O)cc2-c2ccccc2O)cc1`, the IC50 is 17.2 µM in the assay with A549; greater than 100 µM in assay [1]; 20.9 µM in “cells [2]”; 11.7 µM with HeLa; 159 µM in the assay “cells [3]”; 19.9 µM in the assay on HepG2. In the assay “cells [4]”, this compound had an IC50 greater than 300 µM.
For the compound `CCOc1ccc(-c2cc(C(=O)N/N=C/c3c(Cl)c4ccccc4oc3=O)nn2-c2ccc(S(N)(=O)=O)cc2)cc1`, the IC50 in assay [1] is 78.5 µM.
For the compound `COc1cccc(-c2cc(C(=O)N/N=C/c3c(Cl)c4ccccc4oc3=O)nn2-c2ccc(S(N)(=O)=O)cc2)c1`, the IC50 in the assay on A549 was 22.4 µM; in assay [1], greater than 100 µM; in the assay “cells [2]”, 9.58 µM; in the assay on HeLa, 7.58 µM; in the assay “cells [3]”, 105 µM; in the assay on HepG2, 15.7 µM. The IC50 in the assay “cells [4]” amounted to 107 µM.
Take `NS(=O)(=O)c1ccc(-n2nc(C(=O)N/N=C/c3c(Cl)c4ccccc4oc3=O)cc2-c2ccccc2F)cc1`: the IC50 was 14.3 µM in the assay with A549; greater than 100 µM in assay [1]; 6.41 µM in the assay “cells [2]”; 2.85 µM in the assay on HeLa; 148 µM in the assay “cells [3]”; 5.94 µM in the assay on HepG2. The compound further gave an IC50 in the assay “cells [4]” of 108 µM.
Consider `NS(=O)(=O)c1ccc(-n2nc(C(=O)N/N=C/c3c(Cl)c4ccccc4oc3=O)cc2-c2ccc(Cl)c(Cl)c2)cc1`, for which the IC50 in the assay with A549 is 23.5 µM; in assay [1], 96.6 µM; in “cells [2]”, 7.45 µM; in the assay with HeLa, 4.91 µM; in the assay “cells [3]” it was greater than 300 µM; in the assay with HepG2, 5.12 µM. Also, in “cells [4]”, inhibition was half-maximal at 153 µM (IC50).
With `Cc1ccc(-c2cc(C(=O)N/N=C/c3c(Cl)c4ccccc4oc3=O)nn2-c2ccc(S(N)(=O)=O)cc2)cc1`, the IC50 with A549 was 22.1 µM; in assay [1], 89.5 µM; in the assay “cells [2]” it was 6.22 µM; in the assay with HeLa, 8.81 µM; in “cells [3]”, greater than 300 µM; in the assay on HepG2, 11.3 µM. The same compound yielded an IC50 in “cells [4]” of 189 µM.
For `COc1ccc(-c2cc(C(=O)N/N=C/c3c(Cl)c4ccccc4oc3=O)nn2-c2ccc(S(N)(=O)=O)cc2)cc1OC`, the IC50 in the assay with A549 is 40.1 µM; in assay [1] it was 69.3 µM; in “cells [2]”, 19.8 µM; in the assay with HeLa, 13.1 µM; in “cells [3]”, 187 µM; in the assay with HepG2, 21.2 µM. Half-maximal inhibition in “cells [4]” (IC50) required 175 µM.
Turning to `NS(=O)(=O)c1ccc(-n2nc(C(=O)N/N=C/c3c(Cl)c4ccccc4oc3=O)cc2-c2ccc([N+](=O)[O-])cc2)cc1`, the IC50 was 3.85 µM in the assay with A549; 42.2 µM in assay [1]; 4.04 µM in the assay “cells [2]”; 0.52 µM with HeLa; 133 µM in the assay “cells [3]”; 1.63 µM in the assay with HepG2. This compound registered an IC50 in the assay “cells [4]” of 113 µM.
For `Cc1ccc(-c2cc(C(=O)N/N=C/c3c(Cl)c4ccccc4oc3=O)nn2-c2ccc(S(N)(=O)=O)cc2)c(C)c1`, the IC50 with A549 was 28.5 µM; in assay [1] it was 39.5 µM; in the assay “cells [2]” it was 4.68 µM; in the assay with HeLa, 7.95 µM; in “cells [3]” it was 206 µM; in the assay on HepG2 it was 6.7 µM. The compound also yielded an IC50 in “cells [4]” of 175 µM.
For `Cc1ccc(-c2cc(C(=O)N/N=C/c3c(Cl)c4ccccc4oc3=O)nn2-c2ccc(S(N)(=O)=O)cc2)cc1C`, the IC50 in the assay on A549 is 24.2 µM; in assay [1] it was greater than 100 µM; in “cells [2]” it was 6.93 µM; with HeLa, 6.92 µM; in the assay “cells [3]” it was greater than 300 µM; with HepG2 it was 4.41 µM. Further, the midpoint of inhibition in “cells [4]”, the IC50, lay at 233 µM.
Take `COc1cc(-c2cc(C(=O)N/N=C/c3c(Cl)c4ccccc4oc3=O)nn2-c2ccc(S(N)(=O)=O)cc2)cc(OC)c1OC`: the IC50 in the assay with A549 was 26.1 µM; in assay [1], 49.8 µM; in “cells [2]”, 26.2 µM; in the assay with HeLa it was 16.2 µM; in “cells [3]”, 116 µM; in the assay on HepG2 it was 20 µM. For the same compound, inhibition in “cells [4]” was half-maximal at 101 µM (IC50).
Turning to `NS(=O)(=O)c1ccc(-n2nc(C(=O)N/N=C/c3c(Cl)c4ccccc4oc3=O)cc2-c2cccc(Cl)c2)cc1`, the IC50 in the assay with A549 was 14.7 µM; in assay [1] it was greater than 100 µM; in the assay “cells [2]”, 15.6 µM; with HeLa it was 5.46 µM; in “cells [3]”, 168 µM; in the assay with HepG2, 6.75 µM. Half-maximal inhibition in the assay “cells [4]” (IC50) required 152 µM.
For `NS(=O)(=O)c1ccc(-n2nc(C(=O)N/N=C/c3c(Cl)c4ccccc4oc3=O)cc2-c2ccccc2Cl)cc1`, the IC50 in the assay on A549 stood at 12.3 µM; in assay [1] it was 86.2 µM; in “cells [2]” it was 9.12 µM; in the assay with HeLa, 5.09 µM; in “cells [3]” it was 214 µM; in the assay with HepG2, 6.1 µM. Also, inhibition in the assay “cells [4]” was half-maximal at 254 µM (IC50).
Regarding `NS(=O)(=O)c1ccc(-n2nc(C(=O)N/N=C/c3c(Cl)c4ccccc4oc3=O)cc2-c2cccc(F)c2)cc1`, the IC50 in the assay with A549 worked out at 16.2 µM; in assay [1], 74.3 µM; in “cells [2]”, 8.79 µM; in the assay with HeLa it was 3.43 µM; in the assay “cells [3]”, 206 µM; in the assay with HepG2, 4.74 µM. The IC50 in the assay “cells [4]” is 155 µM.
Consider `Cc1cccc(-c2cc(C(=O)N/N=C/c3c(Cl)c4ccccc4oc3=O)nn2-c2ccc(S(N)(=O)=O)cc2)c1`, for which the IC50 with A549 came out at 20.3 µM; in assay [1], 48.2 µM; in “cells [2]”, 5.28 µM; with HeLa it was 11.1 µM; in the assay “cells [3]”, 199 µM; in the assay on HepG2, 5.98 µM. The IC50 in the assay “cells [4]” was greater than 300 µM.
On to `NS(=O)(=O)c1ccc(-n2nc(C(=O)N/N=C/c3c(Cl)c4ccccc4oc3=O)cc2-c2ccc(F)cc2)cc1`, for which the IC50 in the assay with A549 was 11.2 µM; in assay [1], 53.4 µM; in “cells [2]” it was 9.76 µM; in the assay on HeLa it was 0.94 µM; in “cells [3]”, 192 µM; in the assay on HepG2, 3.53 µM. The concentration for half-maximal inhibition (IC50) in the assay “cells [4]” was determined as 181 µM.
With `NS(=O)(=O)c1ccc(-n2nc(C(=O)N/N=C/c3c(Cl)c4ccccc4oc3=O)cc2-c2ccccc2)cc1`, the IC50 in the assay with A549 is 33.5 µM; in assay [1] it was greater than 100 µM; in “cells [2]”, 9.53 µM; in the assay with HeLa, 9.86 µM; in the assay “cells [3]”, 183 µM; with HepG2, 5.76 µM. Moreover, the IC50 in the assay “cells [4]” was found to be 180 µM.

Broadly, the IC50 is the concentration needed to halve the response being measured.
